From patent US20070099915A1, “INHIBITORS OF THE HIV INTEGRASE ENZYME” (PFIZER INC., priority 2005, published 2007)
Like-named read-outs stand apart in the source and are kept apart here.

Columns and labels:
[1] = biological target: T1, Full-length wild type HIV-1 integrase (SF1) (Human immunodeficiency virus type 1 group M subtype B, UniProt P04585); test: Integrase strand-transfer scintillation proximity assay; type: biochemical; conditions: strand-transfer SPA, 246 nM integrase, 50 nM host DNA, 37° C., 50 min; read-out: IC50
T1 construct: made in house; host or cells: E. coli BL21 (DE3)
From the text: The annealed product represents preprocessed viral ds-DNA derived from the LTR U5 sequence of the viral genome. A ds-DNA control to test for non-specific interactions was made using a 3′ di-deoxy derivative of oligonucleotide #1 annealed to oligonucleotide #2. The CA overhang at the 5′ end of the non-biotinylated strand of the ds-DNA was created artificially by using a complimentary DNA oligonucleotide shortened by 2 base pairs. This configuration eliminates the requisite 3′ processing step of the integrase enzyme prior to the strand-transfer mechanism.
The annealed product had overhanging 3′ ends of poly(dA). […] The radiolabeled product was purified using a NENSORB cartridge and stored in stabilized aqueous solution (PerkinElmer).
Reagents: Streptavidin-coated polyvinyltoluene (PVT) SPA beads were purchased from Amersham Biosciences (Piscataway, N.J.). Cesium chloride was purchased from Shelton Scientific, Inc. (Shelton, Conn.). White, polystyrene, flat-bottom, non-binding surface, 96-well plates were purchased from Corning. All other buffer components were purchased from Sigma (St. Louis, Mo.) unless otherwise indicated.
Enzyme Construction: Full-length wild type HIV-1 integrase (SF1) sequence (amino acids 1-289) was constructed in a pET24a vector (Novagen, Madison, Wis.).
Enzyme Purification: Full length wild-type HIV Integrase was expressed in E. coli BL21 (DE3) cells and induced with 1 mM isopropyl-1 thio-β-D-galactopyranoside (IPTG) when cells reached an optical density between 0.8-1.0 at 600 nm. Cells were lysed by microfluidation in 50 mM HEPES pH 7.0, 75 mM NaCl, 5 mM DTT, 1 mM 4-(2-Aminoethyl)benzenesulfonylfluoride HCl (AEBSF). Lysate was then centrifuged 20 minutes at 11 k rpm in GSA rotor in Sorvall RC-5B at 4° C. Supernant was discarded and pellet resuspended in 50 mM HEPES pH 7.0, 750 mM NaCl, 5 mM DTT, 1 mM AEBSF and homogenized in a 40 mL Dounce homogenizer for 20 minutes on ice. Homogenate was then centrifuged 20 minutes at 11 k rpm in SS34 rotor in Sorvall RC-5B at 4° C. Supernant was discarded and pellet resuspended in 50 mM HEPES pH 7.0, 750 mM NaCl, 25 mM CHAPS, 5 mM DTT, 1 mM AEBSF. Preparation was then centrifuged 20 minutes at 11 k rpm in SS34 rotor in Sorvall RC-5B at 4° C.
Supernant was then diluted 1:1 with 50 mM HEPES pH 7.0, 25 mM CHAPS, 1 mM DTT, 1 mM AEBSF and loaded onto a Q-Sepharose column pre-equilibrated with 50 mM HEPES, pH 7.0, 375 mM NaCl, 25 mM CHAPS, 1 mM DTT, 1 mM AEBSF. The flow through peak was collected and NaCl diluted to 0.1 M with 50 mM HEPES pH 7.0, 25 mM CHAPS, 1 mM DTT, 0.5 mM AEBSF and loaded onto a SP-Sepharose column pre-equilibrated with 50 mM HEPES pH 7.0, 100 mM NaCl, 25 mM CHAPS, 1 mM DTT, 0.5 mM AEBSF. After washing the column with the equilibration buffer, a 100 to 400 mM NaCl gradient was run. The eluted integrase was concentrated and run on a S-300 gel diffusion column using 50 mM HEPES pH 7.0, 500 mM NaCl, 25 mM CHAPS, 1 mM DTT, 0.5 mM AEBSF. […] All columns were run in a 4° C. cold room.
Viral DNA Bead Preparation: Streptavidin-coated SPA beads were suspended to 20 mg/mL in 25 mM 3-morpholinopropanesulfonic acid (MOPS) (pH 7.2) and 1.0% NaN3. Biotinylated viral DNA was bound to the hydrated SPA beads in a batch process by combining […] of ds-DNA to 1 mg of suspended SPA beads (10 μL of 50 μM viral DNA to 1 mL of 20 mg/mL SPA beads). The mixture was incubated at 22° C. for a minimum of 20 min. with occasional mixing followed by centrifugation at 2500 rpm for 10 min.

[2] = test system: HIV-1 RF virus in CEM-SS cells; test: HIV-1 cell protection assay (XTT dye reduction); type: cell-based
Method: Six days later, 50 μl of XTT solution (1 mg/ml XTT tetrazolium and 20 nM phenazine methosulfate) were added to the wells and the plates were reincubated for four hours. Viability, as determined by the amount of XTT formazan produced, was quantified spectrophotometrically by absorbance at 450 nm.
Data from CPE assays were expressed as the percent of formazan produced in compound-treated cells compared to formazan produced in wells of uninfected, compound-free cells. […] The 50% cytotoxicity concentration (CC50) was calculated as the concentration of compound that decreased the percentage of formazan produced in uninfected, compound-treated cells to 50% of that produced in uninfected, compound-free cells. The therapeutic index was calculated by dividing the cytotoxicity (CC50) by the antiviral activity (EC50).

[3] = Human immunodeficiency virus 1, CEM-SS, 144 h
[4] = Human immunodeficiency virus 1, 144 h, RF strain of HIV-1, CEM-SS cells, XTT read-out after six days, read-out: EC50

SMILES: CN(C(=O)c1cn(Cc2ccc(F)cc2)c2cnc3c(c12)CCN(O)C3=O)C1CCOCC1 [Example 20, 3-(4-fluorobenzyl)-7-hydroxy-N-methyl-6-oxo-N-(tetrahydro-2H-pyran-4-yl)-6,7,8,9-tetrahydro-3H-pyrrolo[2,3-c]-1,7-naphthyridine-1-carboxamide]
- IC50 [1]: 19 nM
- EC50 [2, 3]: 52 nM

SMILES: O=c1c2ncc3c(c(COCC4CCC4)cn3Cc3ccc(F)cc3)c2ccn1O [Example 90, 1-[(cyclobutylmethoxy)methyl]-3-(4-fluorobenzyl)-7-hydroxy-3,7-dihydro-6H-pyrrolo[23-c]-17-naphthyridin-6-one]
- IC50 [1]: 59 nM
- EC50 [2, 4]: 14 nM

SMILES: N#Cc1cc(Cn2ccc3c4c(ncc32)C(=O)N(O)CC4)ccc1F [Example 88, 2-fluoro-5-[(7-hydroxy-6-oxo-6,7,8,9-tetrahydro-3H-pyrrolo[2,3-c]-1,7-naphthyridin-3-yl)methyl]benzonitrile]
- IC50 [1]: 9 nM
- EC50 [2, 4]: 0.45 nM

SMILES: COCCN(C)CCc1cn(Cc2ccc(F)cc2)c2cnc3c(c12)CCN(O)C3=O [Example 118, 3-(4-fluorobenzyl)-7-hydroxy-1-{2-[(2-methoxyethyl)(methyl)amino]ethyl}-3,7,8,9-tetrahydro-6H-pyrrolo[2,3-c]-1,7-naphthyridin-6-one]
- IC50 [1]: 20 nM
- EC50 [2, 4]: 13 nM

SMILES: CN(C1CCCC1)S(=O)(=O)c1cn(Cc2ccc(F)cc2)c2cnc3c(c12)CCN(O)C3=O [Example 21, N-cyclopentyl-3-(4-fluorobenzyl)-7-hydroxy-N-methyl-6-oxo-6,7,8,9-tetrahydro-3H-pyrrolo[2,3-c]-1,7-naphthyridine-1-sulfonamide]
- IC50 [1]: 905 nM
- EC50 [2, 4]: 120 nM

SMILES: O=C1c2ncc3c(c(CN4C[C@@H](F)[C@H](F)C4)cn3Cc3ccc(F)cc3)c2CCN1O [Example 72, 1-{[(3R,4R)-3,4-difluoropyrrolidin-1-yl]methyl}-3-(4-fluorobenzyl)-7-hydroxy-3,7,8,9-tetrahydro-6H-pyrrolo[2,3-c]-1,7-naphthyridin-6-one]
- IC50 [1]: 9 nM
- EC50 [2, 4]: 0.5 nM

SMILES: O=C1c2ncc3c(c(CCNC4CCOCC4)cn3Cc3ccc(F)cc3)c2CCN1O [Example 112, 3-(4-flourobenzyl)-7-hydroxy-1-(2-(tetrahydro-2H-pyran-4-ylamino)ethyl)-8,9-dihydro-3H-pyrrolo[2,3-c][1,7]naphthyridin-6(7H)-one]
- IC50 [1]: 28 nM
- EC50 [2, 4]: 63 nM

SMILES: O=C1c2ncc3c(c(CCCO)cn3Cc3ccc(F)cc3)c2CCN1O [Example 120, 3-(4-fluorobenzyl)-7-hydroxy-1-(3-hydroxypropyl)-3,7,8,9-tetrahydro-6H-pyrrolo[2,3-c]-1,7-naphthyridin-6-one]
- IC50 [1]: 13 nM
- EC50 [2, 4]: 9 nM

SMILES: COCCCc1cn(Cc2ccc(F)cc2)c2cnc3c(c12)CCN(O)C3=O [Example 94, 3-(4-fluorobenzyl)-7-hydroxy-1-(3-methoxypropyl)-3,7,8,9-tetrahydro-6H-pyrrolo[2,3-c]-1,7-naphthyridin-6-one]
- IC50 [1]: 12 nM
- EC50 [2, 4]: 0.25 nM

SMILES: O=C1c2ncc3c(c(CCNCC(F)(F)F)cn3Cc3ccc(F)cc3)c2CCN1O [Example 115, 3-(4-fluorobenzyl)-7-hydroxy-1-{2-[(2,2,2-trifluoroethyl)amino]ethyl}-3,7,8,9-tetrahydro-6H-pyrrolo[2,3-c]-1,7-naphthyridin-6-one]
- IC50 [1]: 14 nM
- EC50 [2, 4]: 2 nM

SMILES: O=C1c2ncc3c(c(CCN4CCOCC4)cn3Cc3ccc(F)cc3)c2CCN1O [Example 111, 3-(4-fluorobenzyl)-7-hydroxy-1-(2-morpholinoethyl)-8,9-dihydro-3H-pyrrolo[2,3-c][1,7]naphthyridin-6(7H)-one]
- IC50 [1]: 12 nM
- EC50 [2, 4]: 4 nM

SMILES: O=C1c2ncc3c(c(COCC(O)CO)cn3Cc3ccc(F)cc3)c2CCN1O (stereo in doubt) [Example 24, 1-({[(2S)-2,3-dihydroxypropyl]oxy}methyl)-3-(4-fluorobenzyl)-7-hydroxy-3,7,8,9-tetrahydro-6H-pyrrolo[2 3-c]-1,7-naphthyridin-6-one]
- IC50 [1]: 14 nM
- EC50 [2, 4]: 4 nM

SMILES: CN1CCN(C(=O)c2cn(Cc3ccc(F)cc3)c3cnc4c(c23)CCN(O)C4=O)CC1 [Example 17, 3-(4-fluorobenzyl)-7-hydroxy-1-[(4-methylpiperazin-1-yl)carbonyl]-3,7,8,9-tetrahydro-6H-pyrrolo[2,3-c]-1,7-naphthyridin-6-one]
- IC50 [1]: 17 nM
- EC50 [2, 3]: 150 nM

SMILES: O=C1c2ncc3c(ccn3Cc3ccccn3)c2CCN1O [Example 87, 7-hydroxy-3-(pyridin-2-ylmethyl)-3,7,8,9-tetrahydro-6H-pyrrolo[2,3-c]-1,7-naphthyridin-6-one]
- IC50 [1]: 89 nM
- EC50 [2, 4]: 35 nM

SMILES: COC1CCN(C(=O)c2cn(Cc3ccc(F)cc3)c3cnc4c(c23)CCN(O)C4=O)CC1 [Example 15, 3-(4-fluorobenzyl)-7-hydroxy-1-[(4-methoxypiperidin-1-yl)carbonyl]-3,7,8,9-tetrahydro-6H-pyrrolo[2,3-c]-1,7-naphthyridin-6-one]
- IC50 [1]: 14 nM
- EC50 [2, 3]: 28 nM

SMILES: CN(Cc1cn(Cc2ccc(F)cc2)c2cnc3c(c12)CCN(O)C3=O)CC(F)(F)F [Example 73, 3-(4-fluorobenzyl)-7-hydroxy-1-{[methyl(2,2,2-trifluoroethyl)amino]methyl}-3,7,8,9-tetrahydro-6H-pyrrolo[2,3-c]-1,7-naphthyridin-6-one]
- IC50 [1]: 7 nM
- EC50 [2, 4]: 0.4 nM

SMILES: CC(C)CN(C)Cc1cn(Cc2ccc(F)cc2)c2cnc3c(c12)CCN(O)C3=O [Example 123, 3-(4-fluorobenzyl)-7-hydroxy-1-{[isobutyl(methyl)amino]methyl}-3,7,8,9-tetrahydro-6H-pyrrolo[2,3-c]-1,7-naphthyridin-6-one]
- IC50 [1]: 44 nM
- EC50 [2, 4]: 1.6 nM

SMILES: N#Cc1cccc(Cn2ccc3c4c(ncc32)C(=O)N(O)CC4)c1 [Example 85, 3-[(7-hydroxy-6-oxo-6,7,8,9-tetrahydro-3H-pyrrolo[2,3c]1,7-naphthyridin-3-yl)methyl]benzonitrile]
- IC50 [1]: 558 nM
- EC50 [2, 4]: 460 nM

SMILES: CN(CCc1cn(Cc2ccc(F)cc2)c2cnc3c(c12)CCN(O)C3=O)C1CCOCC1 [Example 108, 3-(4-fluorobenzyl)-7-hydroxy-1-(2-(methyl(tetrahydro-2H-pyran-4-yl)amino)ethyl)-8,9-dihydro-3H-pyrrolo[2,3-c][1,7]naphthyridin-6(7H)-one]
- IC50 [1]: 21 nM
- EC50 [2, 4]: 16 nM

SMILES: O=C1c2ncc3c(c(COCCOCc4ccccc4)cn3Cc3ccc(F)cc3)c2CCN1O [Example 57, 1-{[2-(benzyloxy)ethoxy]methyl}-3-(4-fluorobenzyl)-7-hydroxy-3,7,8,9-tetrahydro-6H-pyrrolo[2,3-c]-1,7-naphthyridin-6-one]
- IC50 [1]: 12 nM
- EC50 [2, 4]: 0.69 nM
